The test system of the test is 2′-deoxyguanosine (dG). Kind of test: 8OHdG produced from added dG, standing at room temperature or UV irradiation (Examples 1-7).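 On all read-outs here: Cell-free test: dG in test solution, held at room temperature or exposed to 254 nm UV, then 8OHdG quantified by HPLC with electrochemical detection, compared against dG in ultrapure water.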 Conditions: for evaluation in words: oxidation induction or antioxidant ability toward dG: conclusions of Examples 2-7; for 8OHdG concentration, UV irradiation 60 minutes: ultrapure water 0.392; for 8OHdG concentration, UV irradiation 90 minutes: ultrapure water 0.901; for 8OHdG concentration, UV irradiation 120 minutes: ultrapure water 1.183.

[1] abbreviates: 1 μg/ml, Table 5, ultrapure water 0.219.
The mark [2] stands for this setting: 1 μg/ml, Table 5, ultrapure water 0.422.
The mark [3] stands for this setting: 10 μg/ml, Table 5, ultrapure water 0.219.
Where [4] appears, read: 10 μg/ml, Table 5, ultrapure water 0.422.
Where [5] appears, read: 100 μg/ml, Table 5, ultrapure water 0.219.
Where [6] appears, read: 100 μg/ml, Table 5, ultrapure water 0.422.
Setting [7] is: 1 mg/ml, Table 5, ultrapure water 0.219.
Where [8] appears, read: 1 mg/ml, Table 5, ultrapure water 0.422.
Where [9] appears, read: 1 μg/ml, Table 2, distilled water 0.15.
The mark [10] stands for this setting: 10 μg/ml, Table 2, distilled water 0.15.

“Also recorded” adds a separate entry of the source. Bounds are passed on as bounds.

Method: Separately, the amount of 8OHdG after an ultrapure water solution of dG is left to stand under the same conditions as above for a predetermined time is measured (this value is defined as B). If A is greater than B, the test substance is evaluated to have oxidation induction ability and conversely if A is smaller than B, the test substance is evaluated to have antioxidant ability. In either case, it is judged that the greater the difference is, the greater degree of oxidation induction ability or antioxidant capability the test substance has.
Then, 20 μl of 200 μg/ml dG (dissolved in ultrapure water) was added to each well and one of the plates was left to stand as it was at room temperature for 90 minutes and the other plate was irradiated with UV light (254 nm, 860 μW/cm^2) for 90 minutes in a UV light irradiation box. […] Subsequently, nucleosides in the both were quantified by use of the UV light absorption analyzer connected to the HPLC and the electrochemical detector.
Solutions of predetermined concentrations of vitamin C (VC), vitamin E (VE), catechin (Cate) and tannic acid (Tan) were prepared and 180 μl portions were injected into each well of two 99-well plastic plates. Then, 20 μl of 200 μg/ml dG (dissolved in ultrapure water) was added to each well and one of the plates was left to stand as it was at room temperature for 90 minutes and the other plate was irradiated with UV light (254 nm, 860 μW/cm^2) for 90 minutes in a UV light irradiation box.
Then, 20 μl of 200 μg/ml dG (dissolved in ultrapure water) was added to each well and one of the plates was left to stand as it was at room temperature for 90 minutes and another plate was left to stand similarly at room temperature for 24 hours. The remaining three plates were irradiated with UV light (254 nm, 860 μW/cm^2) for 60 minutes, 90 minutes and 120 minutes, respectively, in a UV light irradiation box.
Solutions of predetermined concentrations of glucose (Glu), raffinose (Raffi) and sucrose (Suc) were prepared and 180 μl portions thereof were injected into each well of four 99-well plastic plates. Then, 20 μl of 200 μg/ml dG (dissolved in ultrapure water) was added to each well and one of the plates was left to stand as it was at room temperature for 90 minutes. The remaining three plates were irradiated with UV light (254 nm, 860 μW/cm^2) for 60 minutes, 90 minutes and 120 minutes, respectively, in a UV light irradiation box.
Then, 20 μl of 200 μg/ml dG (dissolved in ultrapure water) was added to each well and one of the plates was left to stand as it was at room temperature for 90 minutes and the other plate was irradiated with UV light (254 nm, 860 μW/cm^2) for 90 minutes in a UV light irradiation box.
Solutions of various concentrations of uric acid (dissolving fluid: distilled water+0.025% FBS) were prepared and 180 μl portions thereof were injected into each well of two 99-well plastic plates. Then, 20 μl of 200 μg/ml dG (dissolved in ultrapure water) was added to each well and one of the plates was left to stand as it was at room temperature for 90 minutes and the other plate was irradiated with UV light (254 nm, 860 μW/cm^2) for 90 minutes in a UV light irradiation box.

`N=C(N)NCCC[C@H](N)C(=O)O` [Arg, 1-arginine]: the “evaluation in words: oxidation induction or antioxidant ability toward dG” value (“evaluation in words” below) is listed as “exhibited antioxidant ability”. Besides, the “8OHdG concentration, 90 Minutes' standing” value under setting [1] worked out at 0.186 ng/mL. Further, the “8OHdG concentration, 90 Minutes' UV irradiation” value under setting [2] worked out at 0.323 ng/mL. The “8OHdG concentration, 90 Minutes' standing” value under setting [3] is 0.153 ng/mL. Besides, the “8OHdG concentration, 90 Minutes' UV irradiation” value under setting [4] amounted to 0.253 ng/mL. Further, the “8OHdG concentration, 90 Minutes' standing” value under setting [5] is 0.150 ng/mL. The “8OHdG concentration, 90 Minutes' UV irradiation” value under setting [6] was 0.305 ng/mL. Besides, the “8OHdG concentration, 90 Minutes' standing” value under setting [7] was 0.173 ng/mL. For the same compound, under setting [8], the “8OHdG concentration, 90 Minutes' UV irradiation” value is 0.299 ng/mL.
With `NC(=O)NCCC[C@H](N)C(=O)O` [Cit, 1-citrulline], the “evaluation in words” value is “exhibited antioxidant ability”. The “8OHdG concentration, 90 Minutes' standing” value under setting [1] stood at 0.184 ng/mL. In addition, the “8OHdG concentration, 90 Minutes' UV irradiation” value under setting [2] came out at 0.332 ng/mL. The “8OHdG concentration, 90 Minutes' standing” value under setting [3] was found to be 0.179 ng/mL. Also, the “8OHdG concentration, 90 Minutes' UV irradiation” value under setting [4] worked out at 0.305 ng/mL. Besides, the “8OHdG concentration, 90 Minutes' standing” value under setting [5] is 0.120 ng/mL. Besides, the “8OHdG concentration, 90 Minutes' UV irradiation” value under setting [6] is 0.225 ng/mL. In addition, the “8OHdG concentration, 90 Minutes' standing” value under setting [7] worked out at 0.156 ng/mL. The “8OHdG concentration, 90 Minutes' UV irradiation” value under setting [8] worked out at 0.125 ng/mL.
For the compound `Oc1ccc(/C=C/c2cc(O)cc(O)c2)cc1` [RVT, Resveratol], the “8OHdG concentration, 90 Minutes' UV irradiation” value by setting is: (0.0005 ppm, Table 1, ultrapure water 0.529) 1.026 ng/mL; (0.005 ppm, Table 1, ultrapure water 0.529) 0.690 ng/mL; (0.05 ppm, Table 1, ultrapure water 0.529) 0.571 ng/mL; (0.5 ppm, Table 1, ultrapure water 0.529) 1.378 ng/mL; (5 ppm, Table 1, ultrapure water 0.529) 5.582 ng/mL. For the setting “Example 1, 90 minutes UV”, the “concentration at which oxidation injury activity due to UV light is elevated (harmfulness increased)” value is reported as not below 0.5 ppm.
Consider `NCCCNCCCCNCCCN` [Spe, spermine], for which the “evaluation in words” value was “exhibited antioxidant ability”. Further, the “8OHdG concentration, 90 Minutes' standing” value under setting [1] amounted to 0.140 ng/mL. The “8OHdG concentration, 90 Minutes' UV irradiation” value under setting [2] was 0.297 ng/mL. Further, the “8OHdG concentration, 90 Minutes' standing” value under setting [3] is 0.150 ng/mL. Moreover, the “8OHdG concentration, 90 Minutes' UV irradiation” value under setting [4] is 0.328 ng/mL. Under setting [5], the “8OHdG concentration, 90 Minutes' standing” value amounted to 0.154 ng/mL. Also, the “8OHdG concentration, 90 Minutes' UV irradiation” value under setting [6] is 0.351 ng/mL. Besides, the “8OHdG concentration, 90 Minutes' standing” value under setting [7] was 0.179 ng/mL. Further, the “8OHdG concentration, 90 Minutes' UV irradiation” value under setting [8] was 0.112 ng/mL.
As for `OC[C@H]1O[C@@](CO)(O[C@H]2O[C@H](CO)[C@@H](O)[C@H](O)[C@H]2O)[C@@H](O)[C@@H]1O` [Suc, sucrose], the “evaluation in words” value is reported as “Glu>Raffi≈Suc; also recorded: antioxidant ability as potent as that of Raffi”. In addition, the “8OHdG concentration, 90 Minutes' standing” value (0.1 μg/ml, Table 4, ultrapure water 0.195) came out at 0.235 ng/mL. Also, under “0.1 μg/ml, Table 4”, the “8OHdG concentration, UV irradiation 60 minutes” value was 0.299 ng/mL; the “8OHdG concentration, UV irradiation 90 minutes” value worked out at 0.756 ng/mL; the “8OHdG concentration, UV irradiation 120 minutes” value came out at 1.073 ng/mL. Further, the “8OHdG concentration, 90 Minutes' standing” value (1 μg/ml, Table 4, ultrapure water 0.195) stood at 0.185 ng/mL. Moreover, where the note is “1 μg/ml, Table 4”, the “8OHdG concentration, UV irradiation 60 minutes” value turned out to be 0.358 ng/mL; the “8OHdG concentration, UV irradiation 90 minutes” value stood at 0.708 ng/mL; the “8OHdG concentration, UV irradiation 120 minutes” value turned out to be 1.143 ng/mL. Also, for the setting “10 μg/ml, Table 4, ultrapure water 0.195”, the “8OHdG concentration, 90 Minutes' standing” value was determined as 0.235 ng/mL. Further, for the setting “10 μg/ml, Table 4”, the “8OHdG concentration, UV irradiation 60 minutes” value was 0.333 ng/mL; the “8OHdG concentration, UV irradiation 90 minutes” value turned out to be 0.690 ng/mL; the “8OHdG concentration, UV irradiation 120 minutes” value amounted to 1.279 ng/mL. For the same compound, the “8OHdG concentration, 90 Minutes' standing” value (100 μg/ml, Table 4, ultrapure water 0.195) worked out at 0.280 ng/mL. Under “100 μg/ml, Table 4”, the “8OHdG concentration, UV irradiation 90 minutes” value was determined as 0.379 ng/mL and the “8OHdG concentration, UV irradiation 120 minutes” value was determined as 0.648 ng/mL. Further, the “8OHdG concentration, 90 Minutes' standing” value (1 mg/ml, Table 4, ultrapure water 0.195) amounted to 0.300 ng/mL. For the setting “1 mg/ml, Table 4”, the “8OHdG concentration, UV irradiation 60 minutes” value worked out at 0.127 ng/mL; the “8OHdG concentration, UV irradiation 90 minutes” value worked out at 0.309 ng/mL; the “8OHdG concentration, UV irradiation 120 minutes” value amounted to 0.364 ng/mL.
For the compound `O=C(OC[C@H]1O[C@@H](OC(=O)c2cc(O)c(O)c(OC(=O)c3cc(O)c(O)c(O)c3)c2)[C@H](OC(=O)c2cc(O)c(O)c(OC(=O)c3cc(O)c(O)c(O)c3)c2)[C@@H](OC(=O)c2cc(O)c(O)c(OC(=O)c3cc(O)c(O)c(O)c3)c2)[C@@H]1OC(=O)c1cc(O)c(O)c(OC(=O)c2cc(O)c(O)c(O)c2)c1)c1cc(O)c(O)c(OC(=O)c2cc(O)c(O)c(O)c2)c1` [Tan, tannic acid], the “evaluation in words” value is recorded as “high gene injury inducing effect”. Moreover, the “8OHdG concentration, 90 Minutes' standing” value under setting [9] is 0.84 ng/mL. The “8OHdG concentration, 90 Minutes' UV irradiation” value (1 μg/ml, Table 2, distilled water 1.23) came to 1.04 ng/mL. Besides, the “8OHdG concentration, 90 Minutes' standing” value under setting [10] stood at 5.64 ng/mL. In addition, the “8OHdG concentration, 90 Minutes' UV irradiation” value (10 μg/ml, Table 2, distilled water 1.23) is 19.29 ng/mL. In addition, under “100 μg/ml, Table 2, distilled water 0.15”, the “8OHdG concentration, 90 Minutes' standing” value turned out to be 54.00 ng/mL. For the same compound, the “8OHdG concentration, 90 Minutes' UV irradiation” value (100 μg/ml, Table 2, distilled water 1.23) worked out at 97.07 ng/mL.
As to `O=c1[nH]c(=O)c2[nH]c(=O)[nH]c2[nH]1` [uric acid], the “evaluation in words” value is reported as “high degree of DNA oxidation injury”. Besides, under “0.01 μg/ml, Table 6, dissolving fluid 0.218”, the “8OHdG concentration, 90 Minutes' standing” value came to 0.176 ng/mL. In addition, the “8OHdG concentration, 90 Minutes' UV irradiation” value (0.01 μg/ml, Table 6, dissolving fluid 1.007) turned out to be 1.064 ng/mL. For the same compound, the “8OHdG concentration, 90 Minutes' standing” value (0.1 μg/ml, Table 6, dissolving fluid 0.218) came to 0.193 ng/mL. Also, the “8OHdG concentration, 90 Minutes' UV irradiation” value (0.1 μg/ml, Table 6, dissolving fluid 1.007) is 0.966 ng/mL. Moreover, the “8OHdG concentration, 90 Minutes' standing” value (1 μg/ml, Table 6, dissolving fluid 0.218) was 0.175 ng/mL. In addition, the “8OHdG concentration, 90 Minutes' UV irradiation” value (1 μg/ml, Table 6, dissolving fluid 1.007) came out at 2.369 ng/mL. In addition, for the setting “10 μg/ml in distilled water+0.025% FBS, Table 6, dissolving fluid 0.218”, the “8OHdG concentration, 90 Minutes' standing” value turned out to be 0.147 ng/mL. Besides, under “10 μg/ml in distilled water+0.025% FBS, Table 6, dissolving fluid 1.007”, the “8OHdG concentration, 90 Minutes' UV irradiation” value worked out at 15.619 ng/mL.
For the compound catechin, the “evaluation in words” value is given as “induces 8OHdG very strongly”. The “8OHdG concentration, 90 Minutes' standing” value under setting [9] amounted to 9.07 ng/mL. Besides, the “8OHdG concentration, 90 Minutes' standing” value under setting [10] stood at 133.71 ng/mL.

Values taken from patent US7531312B2, “Simplified biological evaluation method of natural and artificial chemicals by using DNA injury index and apparatus therefor” (TAS Project Co., Ltd., priority 2000, dated 2009).
